Entries after “also recorded” stand apart in the source; their conditions may differ.
Columns and labels:
[1] = test system: ATP synthase β chain precursor; experiment: Two-dimensional gel electrophoresis (silver stain, western blot) of cytoplasmic extract of adenosine-treated isolated myocytes; format: cell-based, rabbit
Experimental: Ventricular myocytes from New Zealand White rabbits (weighing 1 to 2 kg) were isolated by collagenase dissociation, as described previously by Liu et al. (Circ. Res. 1996 78:443-454). Hearts were excised, then perfused with collagenase (1.0 mg/mL, Worthington type II) for 14 minutes at a maintained perfusion pressure of 75 mm Hg on a Langendorff apparatus, yielding >50% Ca^2+-tolerant ventricular myocytes. Cell isolation was followed directly by pharmacological preconditioning, which was carried out by treatment with 100 μmol/L adenosine (Sigma) for 60 minutes in a 37° C. water bath, as described previously by Liu et al. supra. Untreated cells were prepared concurrently as drug-free controls. Equivalent 25 μL aliquots of cells (containing ˜30 mg/mL of protein as determined by Lowry assay (Lowry, O. H. J. Biol. Chem. 1951 193:265-275) were frozen and stored at −80° C. until analysis. All steps in the “1N Sequence” protein extraction protocol to produce cytoplasmic and myofilament enriched extracts were carried out at 4° C., and all centrifugations were conducted at 16000×g for 2 minutes at 4° C. Myocyte proteins were first extracted by two rounds of homogenization in 100 μL of HEPES extraction buffer, consisting of (in mmol/L) HEPES 25 (pH 7.4), NaF 50, Na3VO4 0.25, phenylmethylsulfonyl fluoride 0.25, EDTA 0.5, and (in μmol/L) leupeptin 1.25, pepstatin A 1.25. […]

[2] = test system: isolated myocytes obtained from rabbit hearts; conditions: 100 μM adenosine for 60 minutes; cited from earlier work

Q: With Nc1ncnc2c1ncn2[C@@H]1O[C@H](CO)[C@@H](O)[C@H]1O [adenosine] as the compound, how does the “additional, more acidic spots at the molecular weight of intact ATP synthase β chain precursor on 2-D gel (silver stain or western blot)” value ([1]; isolated rabbit cardiomyocytes, 100 μM adenosine for 60 minutes, cytoplasmic extract, n=4, control had only a single protein spot) read?
A: The value was “Two additional spots”.

Q: What about the “post-translational modifications of ATP synthase β-chain precursor” value ([1]; isolated rabbit myocytes treated with adenosine for 60 minutes (n=4) versus untreated myocytes) of the same compound?
A: Its value is “An increase in the post-translational modifications; also recorded: Post-translational modifications to the ATP synthase β-chain precursor were detected”.

Q: What about the “protection against cell death” value [2] of the same compound?
A: Its value is “sufficient to protect against cell death”.
